Test results reported in PMC2914114 (Molecular pharmaceutics, 2010).

What was measured:
[1] = calculated from Stokes-Einstein equation for equivalent spheres; cited from earlier work
Permeability = details: human, pH 7.4

## NC(N)=O [[^14C] Urea, Urea]
hCMEC/D3 cells; pH 7.4
  PM (permeability across the monolayer itself): 5.65 ± 0.08 × 10^−5 cm/sec
[1]
  Molecular Radius: 2.67 Å

## OC[C@@H](O)[C@@H](O)[C@H](O)[C@H](O)CO [[^14C] Mannitol, Mannitol]
[1]
  Molecular Radius: 4.10 Å
Permeability
  Papp at 2 h, 0.25 µCi/mL: 247 ± 2 nm/s

## CC(C)[C@H](N)C(=O)OCCOCn1cnc2c(=O)[nH]c(N)nc21 [valacyclovir]
hCMEC/D3 cells
  A-B versus B-A relative permeability (PM): no differences between the A-B and B-A relative permeabilities
